Reference: paper PMC6956230, “Sequence Determinants of Substrate Ambiguity in a HAD Phosphosugar Phosphatase of Arabidopsis Thaliana” (Biology, 2019)

Tests used:
AtSgpp (MBP-AtSgpp) [1] = target: T1, AtSgpp (MBP-AtSgpp) (Arabidopsis thaliana, UniProt Q9ZVJ5, DEL53-55); assay: phosphate release, molybdate/ascorbic acid assay, Lineweaver-Burk; assay type: biochemical; conditions: 20 mM Tris-HCl pH 7.0, 5 mM MgCl2, 32 °C, MBP fusion, brackets: 95% CI and [SD]
T1 construct: gene SGPP; full-length coding region (735 bp EcoRI/SalI fragment) in pMAL-c2x; N-terminal MBP fusion kept, vector residues Ile-Ser-Glu-Phe before Met1; expressed in E. coli TB1 with pSBETa; amylose resin
T1 sequence (Q9ZVJ5 with tags, fused parts or gaps DEL53-55): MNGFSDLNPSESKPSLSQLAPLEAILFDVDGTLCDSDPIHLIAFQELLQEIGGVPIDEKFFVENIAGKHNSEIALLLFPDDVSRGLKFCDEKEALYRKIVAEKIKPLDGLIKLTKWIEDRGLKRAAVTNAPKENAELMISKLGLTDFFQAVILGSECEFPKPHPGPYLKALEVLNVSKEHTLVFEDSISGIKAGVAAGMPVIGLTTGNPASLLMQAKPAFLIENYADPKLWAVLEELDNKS
Text: (§1) phosphate release, molybdate/ascorbic acid assay, Lineweaver-Burk on AtSgpp (MBP-AtSgpp)

AtSgpp (MBP-AtSgpp) [2] = target: T2, AtSgpp (MBP-AtSgpp) (Arabidopsis thaliana, UniProt Q9ZVJ5); assay: as above; assay type: biochemical; conditions: 20 mM Tris-HCl pH 7.0, 5 mM MgCl2, 32 °C, MBP fusion, brackets: 95% CI and [SD]
T2 construct: gene SGPP; full-length coding region (735 bp EcoRI/SalI fragment) in pMAL-c2x; N-terminal MBP fusion kept, vector residues Ile-Ser-Glu-Phe before Met1; expressed in E. coli TB1 with pSBETa; amylose resin
T2 sequence (Q9ZVJ5 1-244): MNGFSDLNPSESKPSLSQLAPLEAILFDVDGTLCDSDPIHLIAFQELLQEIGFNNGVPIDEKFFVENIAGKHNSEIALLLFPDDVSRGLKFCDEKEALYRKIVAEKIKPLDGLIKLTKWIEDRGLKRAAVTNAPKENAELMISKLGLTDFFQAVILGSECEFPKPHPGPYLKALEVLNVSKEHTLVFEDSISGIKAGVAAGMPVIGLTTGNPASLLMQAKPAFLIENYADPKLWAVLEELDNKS
Text: as §1

Q: How did the “apparent Km” value (AtSgpp (MBP-AtSgpp) [1]) turn out when O=P(O)(O)OC[C@H]1OC(O)[C@@H](O)[C@@H](O)[C@@H]1O (stereo partly drawn) [D-mannose-6-phosphate] was run?
A: 6.7 (6.6–6.8) × 10^−3 [0.1] M

Q: And the “apparent Km” value (AtSgpp (MBP-AtSgpp) [2])?
A: 4.9 (4.2–5.6) × 10^−3 [0.6] M

Q: What does the source list for O=P(O)(O)OC[C@H]1OC(O)C[C@@H](O)[C@@H]1O (stereo partly drawn) [2-deoxy-D-glucose-6-phosphate]?
A: apparent Km (AtSgpp (MBP-AtSgpp) [1]): 4.7 (4.5–4.9) × 10^−3 [0.2] M; apparent Km (AtSgpp (MBP-AtSgpp) [2]): 4.6 (4–5.2) × 10^−3 [0.5] M

Q: What does the source list for O=P(O)(O)OC[C@H]1OC(O)[C@H](O)[C@@H]1O (stereo partly drawn) [D-ribose-5-phosphate]?
A: apparent Km (AtSgpp (MBP-AtSgpp) [1]): 3.7 (3.5–3.9) × 10^−3 [0.2] M; apparent Km (AtSgpp (MBP-AtSgpp) [2]): 3.6 (3.5–3.7) × 10^−3 [0.1] M

Q: For O=P(O)(O)OCC(O)CO (racemic) [DL-glycerol-3-phosphate], which “apparent Km” value (AtSgpp (MBP-AtSgpp) [1]) is on record?
A: 14 (13.7–14.3) × 10^−3 [0.3] M

Q: And the “apparent Km” value (AtSgpp (MBP-AtSgpp) [2])?
A: 7.3 (7.1–7.5) × 10^−3 [0.2] M

Q: What does the source list for O=P(O)(O)OC[C@H]1OC(O)[C@H](O)[C@@H](O)[C@@H]1O (stereo partly drawn) [D-glucose-6-phosphate]?
A: apparent Km (AtSgpp (MBP-AtSgpp) [1]): 8.3 (8–8.6) × 10^−3 [0.3] M; apparent Km (AtSgpp (MBP-AtSgpp) [2]): 7.1 (6.8–7.4) × 10^−3 [0.3] M

Q: Which results are given for O=P(O)(O)OC[C@H]1OC(O)(CO)[C@@H](O)[C@@H]1O (stereo partly drawn) [D-fructose-6-phosphate]?
A: apparent Km (AtSgpp (MBP-AtSgpp) [1]): 10 (9.5–10.5) × 10^−3 [0.4] M; apparent Km (AtSgpp (MBP-AtSgpp) [2]): 7.7 (7.3–8.1) × 10^−3 [0.4] M
